Results from the supplement of paper PMC10307832.

What was measured:
Assay in all cases: relative viability (nuclei count vs DMSO), 5 days (fraction); higher = more cells survive
Dasatinib + Trametinib = compound: Cc1nc(Nc2ncc(C(=O)Nc3c(C)cccc3Cl)s2)cc(N2CCN(CCO)CC2)n1 [Dasatinib] + CC(=O)Nc1cccc(-n2c(=O)n(C3CC3)c(=O)c3c(Nc4ccc(I)cc4F)n(C)c(=O)c(C)c32)c1 [Trametinib] (partner 0.02 µM)
In short: (§1)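 A single step with final 0.05% Triton X-100, 1% formaldehyde and 1 ug/ml Hoechst fixed the cells and stained nuclei 5 days after treatment. Lung cancer cell lines in 1536-well plates had been treated by pin tool the day after seeding with one drug alone or a fixed anchor-drug dose plus five library-drug doses (not always all listed) in √10 steps, and nuclei were counted on 4× images. Relative viability is the ratio of nuclei in treated wells to nuclei in vehicle wells, taken as the median of duplicate plates.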

ALW-II-49-7 + Bortezomib = compound: Cc1ccc(C(=O)Nc2cccc(C(F)(F)F)c2)cc1Nc1cncc(C(N)=O)c1 [ALW-II-49-7] + CC(C)C[C@H](NC(=O)[C@H](Cc1ccccc1)NC(=O)c1cnccn1)B(O)O [Bortezomib] (partner 0.002 µM)
In short: as §1

XMD13-2 + Linsitinib = compound: C1CC1C(=O)NC2=NNC3=C2C=CC(=C3)C4=CC(=CC=C4)C(=O)NC5CC5 [XMD13-2] + C[C@]1(O)C[C@@H](c2nc(-c3ccc4ccc(-c5ccccc5)nc4c3)c3c(N)nccn32)C1 [Linsitinib] (partner 1 µM)
In short: as §1

Cell Line | relative viability (Dasatinib + Trametinib; first compound 0.005 µM) | relative viability (Dasatinib + Trametinib; first compound 0.01581 µM) | relative viability (Dasatinib + Trametinib; first compound 0.05 µM) | relative viability (Dasatinib + Trametinib; first compound 0.1581 µM) | relative viability (Dasatinib + Trametinib; first compound 0.5 µM) | relative viability (ALW-II-49-7 + Bortezomib; first compound 0.08 µM) | relative viability (ALW-II-49-7 + Bortezomib; first compound 0.253 µM) | relative viability (ALW-II-49-7 + Bortezomib; first compound 0.8 µM) | relative viability (ALW-II-49-7 + Bortezomib; first compound 2.53 µM) | relative viability (ALW-II-49-7 + Bortezomib; first compound 8 µM) | relative viability (XMD13-2 + Linsitinib; first compound 0.05 µM) | relative viability (XMD13-2 + Linsitinib; first compound 0.1581 µM) | relative viability (XMD13-2 + Linsitinib; first compound 0.5 µM) | relative viability (XMD13-2 + Linsitinib; first compound 1.581 µM) | relative viability (XMD13-2 + Linsitinib; first compound 5 µM)
NCI-H1651 | 0.848 | 0.852 | 0.834 | 0.77 | 0.679 | 1.06 | 0.976 | 1.04 | 0.933 | 0.936 | 0.964 | 0.961 | 1.05 | 1.07 | 1.01
RERF-LC-KJ | 0.855 | 0.784 | 0.765 | 0.668 | 0.658 | 0.861 | 1.36 | 1.06 | 0.813 | 1.14 | 0.916 | 0.89 | 0.947 | 0.817 | 0.871
NCI-H1755 | 0.752 | 0.68 | 0.658 | 0.444 | 0.301 | 0.963 | 1.04 | 0.963 | 0.923 | 0.849 | 1.04 | 0.942 | 1.06 | 0.963 | 1.02
SK-MES-1 | 0.566 | 0.475 | 0.361 | 0.217 | 0.157 | – | – | – | – | – | 1.11 | 1.03 | 1.01 | 1.01 | 1.16
NCI-H2126 | 0.641 | 0.425 | 0.551 | 0.424 | 0.309 | 1.09 | 1.17 | 1.2 | 1.08 | 1.17 | 0.697 | 0.693 | 0.755 | 0.662 | 0.703
EPLC-272H | 0.312 | 0.267 | 0.307 | 0.222 | 0.141 | 0.806 | 0.839 | 0.934 | 1.05 | 0.751 | 1.21 | 1.08 | 1.25 | 1.06 | 0.284
NCI-H1975 | 0.364 | 0.25 | 0.272 | 0.232 | 0.177 | 0.274 | 0.485 | 0.333 | 0.338 | 0.319 | 1.08 | 0.926 | 0.968 | 0.972 | 1.07
NCI-H3122 | 0.234 | 0.249 | 0.248 | 0.222 | 0.192 | 1.09 | 1.06 | 1.11 | 1.08 | 1.11 | 1.02 | 1.01 | 1.04 | 1.06 | 0.951
COR-L 105 | 0.445 | 0.358 | 0.389 | 0.336 | 0.253 | 0.802 | 0.681 | 0.826 | 0.587 | 0.767 | 1.04 | 1.13 | 1 | 0.875 | 0.797
BEN | 0.891 | 0.614 | 0.8 | 0.528 | 0.511 | 0.851 | 0.828 | 0.789 | – | 0.875 | 1.07 | 0.884 | 0.963 | 0.866 | 0.898
NCI-H1915 | 0.291 | 0.245 | 0.228 | 0.151 | 0.0841 | 0.648 | 1 | 0.918 | 0.931 | 0.67 | 1.15 | 1.13 | 1.07 | 1.1 | 1.09
NCI-H650 | 0.888 | 0.899 | 0.847 | 0.503 | 0.458 | 0.649 | 0.906 | 0.913 | 0.88 | 0.663 | 0.983 | 0.857 | 0.899 | 0.718 | 0.865
NCI-H1703 | – | – | – | – | – | 0.287 | 0.348 | 0.298 | 0.278 | 0.167 | 0.637 | 1.23 | 0.805 | – | 0.74
NCI-H1650 | 0.667 | 0.493 | 0.406 | 0.313 | 0.216 | 0.203 | 0.218 | 0.218 | 0.198 | 0.206 | – | – | – | – | –
NCI-H2009 | 0.26 | 0.173 | 0.184 | 0.12 | 0.0876 | 1 | 1.03 | 0.96 | 0.783 | 0.512 | 1.19 | 1.19 | 1.13 | 1.2 | 1.16
COR-L23 | 0.563 | 0.416 | 0.48 | 0.444 | 0.281 | 1.13 | 0.784 | 0.95 | 0.866 | 1.11 | 1.01 | 0.917 | 1.02 | 0.848 | 0.872
NCI-H522 | 0.767 | 0.63 | 0.668 | 0.591 | 0.599 | – | – | – | – | – | – | – | – | – | –
NCI-H1563 | – | – | – | – | – | 0.922 | 0.885 | 0.877 | 0.842 | 0.753 | 1.22 | 1.27 | 1.16 | 1.12 | 1.31
NCI-H1793 | 0.4 | 0.353 | 0.317 | 0.357 | 0.322 | – | – | – | – | – | 0.882 | 0.811 | 0.852 | 0.713 | 0.999
NCI-H358 | 0.151 | 0.116 | 0.105 | 0.0936 | 0.089 | – | – | – | – | – | 0.759 | 0.764 | 0.826 | 0.663 | 0.449
SW 900 | 0.783 | 0.474 | 0.405 | 0.393 | 0.188 | – | – | – | – | – | – | – | – | – | –
IA-LM | – | – | – | – | – | 1.12 | 0.621 | 0.509 | 0.217 | 0.161 | 0.627 | 0.56 | 0.582 | 0.683 | 0.713
NCI-H2170 | 0.929 | 0.828 | 0.834 | 0.651 | 0.365 | – | – | – | – | – | – | – | – | – | –
EBC-1 | – | – | – | – | – | 0.543 | 0.508 | 0.474 | 0.513 | 0.39 | 0.889 | 0.966 | 1.08 | 0.874 | 0.766
NCI-H1944 | 0.389 | 0.367 | 0.348 | 0.218 | 0.153 | – | – | – | – | – | 1.24 | 1.18 | 1.26 | 1.29 | 1.34
LK-2 | 0.765 | 0.399 | 0.414 | 0.263 | 0.246 | – | – | – | – | – | 0.715 | 0.518 | 0.554 | 0.676 | 0.422
NCI-H1299 | – | – | – | – | – | 1.03 | 1.02 | 1.02 | 0.98 | 0.853 | 0.982 | 1.03 | 1.15 | 0.997 | 1.03
